Measured values taken from PMC8956739, “A synthetic lipopeptide targeting top-priority multidrug-resistant Gram-negative pathogens” (Nature Communications, 2022).
Values after ≈ are worked out from the molar mass of the structure shown. Values joined by “and” are separate entries in the source; they are usually repeats but may differ in a detail not shown here. Identical values can stand only once. Like-named read-outs stand apart in the source and are kept apart here. Residues, ends and D or L forms follow the SMILES beside them.

How the values were obtained:
[1] = tested on: K. pneumoniae FADDI-KP032; type: cell-based, Klebsiella pneumoniae
Outline: (§1)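 Broth microdilution, CaMHB; MIC read as the antibacterial endpoint against ATCC reference strains and clinical isolates.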

[2] = tested on: K. pneumoniae FADDI-KP065; type: cell-based, Klebsiella pneumoniae
Outline: as §1

Swiss mice = assay: Acute toxicity in mice (maximum tolerated dose, IV bolus); type: in vivo, mouse; details: for MTD, single replicate: replicates 1-4
Procedure: Lipopeptide solutions were prepared in 0.9% saline and stored at 4 °C before use. Swiss mice (female, 7-week-old, 22–28 g) were used in the study. A mouse was administered an intravenous bolus of the lipopeptide (mg/kg free base) through a lateral tail vein (≤0.1 mL). After the injection, the mouse was released back into the cage and monitored for clinical signs of toxicity from 0 to 24 h after injection as follows: every 10 min in the first 2 h, every half hour from 2 to 4 h, every hour from 4 to 12 h, and every 2 h from 12 to 24 h.

[3] = tested on: MDR clinical isolates of Enterobacterales (n = 177, 152 carbapenem-resistant); assay: Extended MIC screening, MDR clinical isolates; type: cell-based
Procedure: MICs were determined in cation-adjusted Mueller–Hinton broth (CaMHB) by the broth micro-dilution method against ATCC strains and clinical isolates. MICs in the presence of Survanta® were determined as described above against P. aeruginosa ATCC 27853. In the 100 μL of fresh CaMHB containing polymyxins, 10% Survanta® (v/v, 2.5 mg/mL phospholipids) was added. MICs in the presence and absence of Survanta® were compared to determine the effect of binding to lung surfactant on the antibacterial activity of polymyxins.

[4] = tested on: MDR clinical isolates of A. baumannii (n = 210, 200 carbapenem-resistant); type: cell-based, Acinetobacter baumannii; details: for potency relative to polymyxin B: MIC50/MIC90, A. baumannii panel
Outline: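 Compounds were serially diluted in CaMHB, bacteria were added, and the lowest inhibitory concentration was recorded after broth microdilution testing.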

in vitro = type: cell-based, human; details: human, wild-type HK-2 cells (kidney proximal tubular), Cell viability, WT
Procedure: (§2) Fig. 6 Transcriptomic changes in human kidney proximal tubular HK-2 cells following treatments with polymyxin B (PMB), colistin (COL), F287, F319, and F365. a Numbers of differentially expressed genes. Distinctive intersections are color-coded. b Cell viability difference (two-tailed Student’s t-test, n = 4 biologically independent cells, Benjamini–Hochberg adjusted P-values) between wild-type HK-2 and KCNJ16 knockout (KO) cells following 24 h treatment with lipopeptides. n.s., not significant; ^*adjusted P < 0.05, ^**adjusted P < 0.01, ^***adjusted P < 0.001. Data are shown as mean ± s.d. and individual data points. c Extracted transcriptional regulatory network from Signor database with 1-step neighbor constraints (enlarged for detail). Source data are provided as a Source Data file.

wild-type HK-2 cells = assay: in vitro; type: cell-based, human; details: for Cell viability, WT, Rep1 / Cell viability, WT, Rep2 / Cell viability, WT, Rep4: human, wild-type HK-2 cells (kidney proximal tubular), 24 h
Procedure: as §2

[5] = tested on: P. aeruginosa FADDI-PA090; type: cell-based, Pseudomonas aeruginosa
Outline: as §1

[6] = tested on: P. aeruginosa FADDI-PA070; type: cell-based, Pseudomonas aeruginosa
Outline: as §1

[7] = tested on: P. aeruginosa PAM1723 (overexpresses MexAB-OprM); type: cell-based, Pseudomonas aeruginosa; details: Leu-Nap hydrolysis
Procedure: Bacterial strains were seeded in 50 mL of Luria-Bertani (LB) broth at OD600 0.05 and grown at 37 °C for 3-4 h until an OD600 of 0.6–0.8 was achieved. Bacterial cells were washed twice with 25 mL of buffer (50 mM sodium phosphate, 0.5% glucose, pH 7, with or without 1 mM Mg^2+), resuspended in 10 mL of the buffer, and then adjusted to an OD600 of 0.4. […] Bacterial suspension (50 μL, OD600 0.4) in buffer was added to the lipopeptide solutions and the rate of substrate hydrolysis was measured at 490 nm.
Activity of F365 and polymyxin B in the efflux inhibition assay.
One of the consequences of disruption/permeabilization of the cytoplasmic membrane by polymyxins is the dissipation of the proton gradient across the cytoplasmic membrane. […]
these compounds are expected to inhibit proton-dependent transport activity across the cytoplasmic membrane including efflux. Efflux activity and its inhibition by F365 was assessed by examining the rates of hydrolysis of a fluorogenic substrate of efflux pumps, Leu-Nap, by intact cells of P. aeruginosa. For these experiments we used two strains of P. aeruginosa, PAM1723 and PAM1626. PAM1723 overexpresses the efflux pump MexAB-OprM and PAM1626 lacks this pump as well as several other pumps that extrude Leu-Nap. […] The rate of production of β-naphthylamine (recorded as an increase in fluorescence) is limited by the rate of entry of Leu-Nap into the cells. […]

[8] = MDR clinical isolates of (n = 210, 200 carbapenem-resistant)

Molecule | MTD, single replicate (Swiss mice) | Number of isolates ([3]; isolates with MIC 0.05 µg/mL) | Number of isolates ([3]; isolates with MIC 0.125 µg/mL) | Number of isolates ([3]; isolates with MIC 0.25 µg/mL) | Number of isolates ([3]; isolates with MIC 0.5 µg/mL) | Number of isolates ([3]; isolates with MIC 1 µg/mL) | Number of isolates ([3]; isolates with MIC 2 µg/mL) | Number of isolates ([3]; isolates with MIC 4 µg/mL) | Number of isolates ([3]; isolates with MIC 8 µg/mL) | Number of isolates ([3]; isolates with MIC 16 µg/mL) | Number of isolates ([3]; isolates with MIC 32 µg/mL) | Number of isolates ([3]; isolates with MIC 64 µg/mL) | Number of isolates ([3]; isolates with MIC >64 µg/mL) | Number of isolates ([4]; isolates with MIC 0.05 µg/mL) | Number of isolates ([4]; isolates with MIC 0.125 µg/mL) | Number of isolates ([4]; isolates with MIC 0.25 µg/mL) | Number of isolates ([4]; isolates with MIC 0.5 µg/mL) | Number of isolates ([4]; isolates with MIC 1 µg/mL) | Number of isolates ([4]; isolates with MIC 2 µg/mL) | Number of isolates ([4]; isolates with MIC 4 µg/mL) | further results
CCCCCCCC(=O)N[C@@H](CCN)C(=O)N[C@H](C(=O)N[C@@H](CN)C(=O)N[C@H]1CCNC(=O)[C@H]([C@@H](C)O)NC(=O)[C@H](CCN)NC(=O)[C@H](CCN)NC(=O)[C@H](CC)NC(=O)[C@@H](CC(C)C)NC(=O)[C@H](CCN)NC1=O)[C@@H](C)O [Lipopeptide F287] (HELM PEPTIDE1{[CCCCCCCC(=O)[*:2]].[Dab].T.[NC[C@H](N[*:1])C(=O)[*:2]].[Dab].[Dab].[dL].[Abu].[Dab].[Dab].T}$PEPTIDE1,PEPTIDE1,5:R3-11:R2$$$V2.0) | 6.6 mg/kg | 0 | 0 | 17 | 131 | 5 | 2 | 1 | 2 | 5 | 7 | 3 | 4 | 0 | 15 | 126 | 54 | 8 | 2 | 0 | MIC K. pneumoniae FADDI-KP032 ([1]; FADDI-KP032): <0.125 µg/mL; MIC K. pneumoniae FADDI-KP065 ([2]; FADDI-KP065): <0.125 µg/mL; MIC50 [4, 8]: 0.25 µg/mL (≈ 0.225 µM); MIC90 [4, 8]: 0.5 µg/mL (≈ 0.449 µM); potency relative to polymyxin B [4]: up to 8 fold; Number of isolates ([4]; isolates with MIC 8 µg/mL): 1; Number of isolates ([4]; isolates with MIC 16 µg/mL): 0; Number of isolates ([4]; isolates with MIC 32 µg/mL): 0; Number of isolates ([4]; isolates with MIC 64 µg/mL): 1; Number of isolates ([4]; isolates with MIC >64 µg/mL): 0; viability at 24 h (in vitro; Rep1): 52%; viability at 24 h (in vitro; Rep2): 54.3%; viability at 24 h (in vitro; Rep4): 47%
CCCCCCCC(=O)N[C@@H](CCN)C(=O)N[C@H](C(=O)N[C@@H](CCN)C(=O)N[C@H]1CCNC(=O)[C@H]([C@@H](C)O)NC(=O)[C@H](CCN)NC(=O)[C@H](CCN)NC(=O)[C@H](CC)NC(=O)[C@@H](CC(C)C)NC(=O)[C@H](CCN)NC1=O)[C@@H](C)O [Lipopeptide F319] (HELM PEPTIDE1{[CCCCCCCC(=O)[*:2]].[Dab].T.[Dab].[Dab].[Dab].[dL].[Abu].[Dab].[Dab].T}$PEPTIDE1,PEPTIDE1,5:R3-11:R2$$$V2.0) |  |  |  |  |  |  |  |  |  |  |  |  |  |  |  |  |  |  |  |  | MIC K. pneumoniae FADDI-KP032 ([1]; FADDI-KP032): 0.25 µg/mL (≈ 0.222 µM); MIC K. pneumoniae FADDI-KP065 ([2]; FADDI-KP065): <0.125 µg/mL; viability at 24 h (in vitro; Rep1): 79%; viability at 24 h (in vitro; Rep2): 79.1%; viability at 24 h (in vitro; Rep3): 78.8%; viability at 24 h (in vitro; Rep4): 70.1%
CC[C@@H]1NC(=O)[C@@H](CC(C)C)NC(=O)[C@H](CCN)NC(=O)[C@@H](NC(=O)[C@H](CN)NC(=O)[C@@H](NC(=O)[C@H](CCN)NC(=O)c2ccc(Cl)cc2Cl)[C@@H](C)O)CCNC(=O)[C@H]([C@@H](C)O)NC(=O)[C@H](CCN)NC(=O)[C@H](CCN)NC1=O [Lipopeptide F365] (HELM PEPTIDE1{[O=C(c1ccc(Cl)cc1Cl)[*:2]].[Dab].T.[NC[C@H](N[*:1])C(=O)[*:2]].[Dab].[Dab].[dL].[Abu].[Dab].[Dab].T}$PEPTIDE1,PEPTIDE1,5:R3-11:R2$$$V2.0) | 10.1 mg/kg | 0 | 9 | 68 | 72 | 5 | 1 | 2 | 0 | 5 | 2 | 4 | 6 | 1 | 7 | 99 | 81 | 8 | 9 | 1 | MIC K. pneumoniae FADDI-KP032 ([1]; carbapenem-resistant isolate): <0.125 µg/mL; MIC K. pneumoniae FADDI-KP065 ([2]; carbapenem-resistant isolate): <0.125 µg/mL; MIC50 [4, 8]: 0.25 µg/mL (≈ 0.215 µM); MIC90 [4, 8]: 1 µg/mL (≈ 0.862 µM); potency relative to polymyxin B [4]: ≤ 4 fold; Number of isolates ([4]; isolates with MIC 8 µg/mL): 0; Number of isolates ([4]; isolates with MIC 16 µg/mL): 1; Number of isolates ([4]; isolates with MIC 32 µg/mL): 2; Number of isolates ([4]; isolates with MIC 64 µg/mL): 1; Number of isolates ([4]; isolates with MIC >64 µg/mL): 0; viability at 24 h (in vitro; Rep1): 96.4%; viability at 24 h (in vitro; Rep2): 95.4%; viability at 24 h (in vitro; Rep4): 95.1%; effect on cell viability (wild-type HK-2 cells): no effect on cell viability; MIC P. aeruginosa FADDI-PA090 ([5]; FADDI-PA090): 8 µg/mL (≈ 6.9 µM); MIC P. aeruginosa FADDI-PA070 ([6]; FADDI-PA070): > 32 µg/mL; IC50, inhibition of efflux activity [7]: 4.2 ± 1.5 µg/mL
Colistin [reference compound] | 6 mg/kg and 5.8 mg/kg and 5 mg/kg |  |  |  |  |  |  |  |  |  |  |  |  |  |  |  |  |  |  |  | MIC K. pneumoniae FADDI-KP032 ([1]; carbapenem-resistant isolate): 1 µg/mL; MIC K. pneumoniae FADDI-KP065 ([2]; carbapenem-resistant isolate): 0.25 µg/mL; average maximum tolerated dose (MTD) (Swiss mice; single IV bolus dose, n = 4): 5.3 mg/kg; Cell viability, WT, Rep1 (wild-type HK-2 cells): 52.6875; Cell viability, WT, Rep2 (wild-type HK-2 cells): 59.5382; Cell viability, WT, Rep4 (wild-type HK-2 cells): 47.0908
Polymyxin B [reference compound] | 7 mg/kg and 5 mg/kg and 4.6 mg/kg | 0 | 0 | 0 | 0 | 77 | 76 | 2 | 2 | 6 | 3 | 6 | 5 | 0 | 0 | 0 | 24 | 120 | 47 | 11 | MIC K. pneumoniae FADDI-KP032 ([1]; carbapenem-resistant isolate): 0.5 µg/mL; MIC K. pneumoniae FADDI-KP065 ([2]; carbapenem-resistant isolate): 0.25 µg/mL; MIC50 ([4]; A. baumannii n = 210): 1 µg/mL; MIC90 ([4]; A. baumannii n = 210): 4 µg/mL; Number of isolates ([4]; isolates with MIC 8 µg/mL): 5; Number of isolates ([4]; isolates with MIC 16 µg/mL): 2; Number of isolates ([4]; isolates with MIC 32 µg/mL): 0; Number of isolates ([4]; isolates with MIC 64 µg/mL): 0; Number of isolates ([4]; isolates with MIC >64 µg/mL): 0; Cell viability, WT, Rep1 (wild-type HK-2 cells): 28.7713; Cell viability, WT, Rep2 (wild-type HK-2 cells): 35.2856; Cell viability, WT, Rep4 (wild-type HK-2 cells): 31.0651; MIC P. aeruginosa FADDI-PA090 ([5]; polymyxin-resistant): 4 µg/mL; MIC P. aeruginosa FADDI-PA070 ([6]; polymyxin-resistant): > 32 µg/mL; IC50, inhibition of efflux activity [7]: 7.6 ± 1.4 µg/mL
